Literature values as cited in patent US9580717B2, “Heterologous hosts” (priority 2009, dated 2017).

How the values were obtained:
[1] = system: malignant mammalian cells
P388 leukaemia cells = settings: mouse, in vivo

## C[C@H]1CCC(C2=C(CC(=O)NCC(=O)c3csc(C(=O)C(=O)c4csc(CNC(=O)CC5=C(C6=N[C@@H](C)CC6)C(=O)NC56CC6)n4)n3)C3(CC3)NC2=O)=N1 [Colibactin]
[1]
  cytopathic activity against malignant mammalian cells: cytopathic activity

## CCCCCCC/C=C/C=C/C(=O)N[C@H](C(=O)N[C@H]1C[C@@H](O)CCNC(=O)/C=C/[C@H](C)NC1=O)[C@@H](C)O [Glidobactin A]
Tumour cell lines
  cytotoxicity to tumour cell lines: cytotoxic to tumour cell lines
P388 leukaemia cells
  lifespan of mice inoculated with P388 leukaemia cells: can prolong the lifespan
